# According to paper PMC10671849, “Synthesis and Evaluation of Marine-Inspired Compounds Result in Hybrids with Antitrypanosomal and Antileishmanial Activities” (Marine Drugs, 2023):
# Like-named read-outs stand apart in the source and are kept apart here.
# Tests used:
# [1] = Cytotoxicity MTT assay on PMA-differentiated THP-1 macrophages; assay type: cell-based; details: human
# Description: A human leukemia cell line, THP-1 (ATCC® TIB-202™), was cultured in RPMI-1640 medium supplemented with 10% heat-inactivated fetal bovine serum (FBS), 2 mM L-glutamine, 100 IU/mL penicillin/streptomycin, and 20 mM HEPES. The cell line was maintained in a humidified incubator at 37 °C and 5% CO2 by subculture every 3 days in 20 mL of media at a concentration of 2 × 10^5/mL in a T75 flask. All cell culture reagents were purchased from Lonza-Bioscience (Morrisville, NC, USA).
# The cytotoxicity effect of compounds on THP-1-derived macrophages was assessed by colorimetric MTT assay (3-(4,5-dimethylthiazol-2-yl)-2,5-diphenyl tetrazolium bromide). Briefly, THP-1 cells were suspended in RPMI complete medium at a density of 1 × 10^6 cells/mL and 100 μL/well and were seeded in a 96-well plate and differentiated into macrophages by addition of 40 ng/mL of phorbol-myristate 13-acetate (PMA, Sigma, Saint Louis, MI, USA) for 24 h, followed by replacement with fresh medium for 24 more h. Subsequently, the cells were incubated with 100 μL of compounds ranging from 100 to 12.5 μM after dilution in the RPMI complete medium. Each condition was carried out in quadruplicate. After 72 h of incubation at 37 °C and 5% CO2, the medium was removed, and 200 μL of 0.5 mg/mL MTT solution diluted in RPMI was added. The plates were incubated for an additional 4 h. Then, 160 μL of media was removed, and the same volume of 2-propanol was added. Absorbance was read at 570 nm using a Synergy 2 Multi-Mode Reader (Biotek, Winooski, VT, USA). Cytotoxicity was evaluated by the determination of the CC50 value (drug concentration that reduced the percentage of viable cells by 50%) and calculated by non-linear regression analysis using GraphPad Prism software, version 8.1.1 for Windows (GraphPad Software, San Diego, CA, USA). The results represent the average of at least three independent experiments. For each compound, the selectivity index (SI) was calculated as the ratio between cytotoxicity in THP-1 (CC50, 72 h) and activity against parasites (IC50, 72 h).
# [2] = system: L. infantum promastigotes; test: Anti-Leishmania activity, resazurin-based assay; assay type: cell-based; details: 72 h incubation, resazurin, highest concentration tested 40 µM, 95% CI in parentheses, read-out: Anti-Parasitic Activity IC50 (µM) 95% CI, L. infantum Promastigotes
# Description: Promastigotes from the L. infantum strain (MHOM/MA/67/ITMAP-263) were grown in 5-mL T25 flasks in Schneider’s insect medium supplemented with 10% heat-inactivated fetal bovine serum (FBS), 200 U/mL penicillin/streptomycin, 6 µg/mL Phenol Red, and 5 mM HEPES. The cultures were maintained in an incubator at 27 °C and diluted to 2 × 10^5/mL every 5 days. For the assays, the parasites used were equivalent to late/log with 2 or 3 days of culture.
# The compounds’ efficacy against L. infantum promastigotes was evaluated using a resazurin-based assay. Parasites were added to 100 µL of serial dilutions of compounds in supplemented complete medium at a cell density of 5 × 10^5/mL. As a quality control, a dose–response curve to the antileishmanial drug miltefosine was included in all the assays. The final volume of the assay was 200 µL/well. Each condition was carried out in duplicate. Following 72 h of incubation at the specific conditions for parasites, 20 µL of a 0.5 mM resazurin solution was added, and the plates were incubated for a further 4 h under the same conditions. Fluorescence was measured at 544 nm and 590 nm excitation and emission wavelengths, respectively, using a Synergy 2 Multi-Mode Reader (Biotek, Winooski, VT, USA). Results are shown as % of parasite growth inhibition compared to control (untreated parasites) and represent the average of at least three independent experiments. The effect was evaluated by the determination of the IC50 value (concentration required to inhibit growth in 50%) and was calculated by non-linear regression curves using GraphPad Prism software, version 8.1.1 for Windows (GraphPad Software, San Diego, CA, USA).
# [3] = system: T. brucei Lister 427 bloodstream forms; test: Anti-T. brucei activity, resazurin-based assay on bloodstream forms; assay type: cell-based, Trypanosoma brucei; details: Trypanosoma brucei; bloodstream forms, 72 h incubation, resazurin; read-out: Anti-Parasitic Activity IC50 (µM) 95% CI, T. brucei
# Description: T. brucei Lister 427 bloodstream forms were grown in a humidified incubator at 37 °C and 5% CO2 in complete HMI-9 medium supplemented with 10% heat-inactivated fetal bovine serum (FBS) and 100 UI/mL penicillin/streptomycin. Parasite maintenance was performed in T25 ventilated flasks by subpassage at a concentration of 1 × 10^4/mL every 2 days in T25 ventilated flasks. Luciferase-expressing L. infantum (MHOM/MA/67/ITMAP-263) axenic amastigotes expressing episomal luciferase were maintained in MAA20 [31] at 37 °C in a 5% CO2 environment with subculture every 7 days at 1 × 10^6/mL in 5-mL T25 ventilated flasks.
# The compounds’ efficacy against bloodstream-stage trypomastigotes was evaluated using a resazurin-based assay. Parasites were added to 100 µL of serial dilutions of compounds in supplemented complete medium at a cell density of 5 × 10^3/mL. As a quality control, a dose–response curve for the antitrypanosomal pentamidine was included in all the assays. The final volume of the assay was 200 µL/well. Each condition was carried out in duplicate. Following 72 h of incubation at the specific conditions for parasites, 20 […] of a 0.5 mM resazurin solution was added, and the plates were incubated for a further 4 h under the same conditions. Fluorescence was measured at 544 nm and 590 nm excitation and emission wavelength, respectively, using a Synergy 2 Multi-Mode Reader (Biotek, Winooski, VT, USA). The results are shown as % of parasite growth inhibition compared to control (untreated parasites) and represent the average of at least three independent experiments. The effect was evaluated by the determination of the IC50 value (concentration required to inhibit growth in 50%) and calculated by non-linear regression curves using GraphPad Prism software, version 8.1.1 for Windows (GraphPad Software, San Diego, CA, USA).
IC50 [2] [µM],IC50 [3] [µM],Compound,"CC50 at 72 h ([1]; PMA-differentiated THP-1 macrophages, 72 h, MTT, 100 to 12.5 µM tested, read-out: Cytotoxicity CC50 (µM) 95% CI, THP-1) [µM]",CC50 at 72 h [1] [µM]
11,–,"CCCCCCCCCCCCCCCCOP(=O)([O-])OCC[N+](C)(C)C [Miltefosine, miltefosine, reference compound]",29.4,–
–,0.0056,"N=C(N)c1ccc(OCCCCCOc2ccc(C(=N)N)cc2)cc1 [Pentamidine, pentamidine, reference compound]",–,37.7
